Assay results: patent publication US9169241B2, “Quinolinyloxyphenylsulfonamides” (Max-Planck-Gesellschaft Zur Forderung der Wissenschaften …, priority 2009, dated 2015)

Assays:
Type in all cases: cell-based
[1] = target: T1, wild type AXL (wtAXL) receptor tyrosine kinase (Homo sapiens, UniProt P30530); assay: NIH-3T3-AXL cellular kinase assay (pY-AXL-ELISA); conditions: NIH-3T3-AXL (clone 22) cells, serum depleted, compounds 1 h; Table Ia
T1 construct: WtAXL cDNA was cloned into vector pLXSN(ESK) and transfected into Phoenix E packaging cells; expressed in transfected cells; host or cells: NIH3T3 N7 (mouse fibroblasts), retrovirally infected, clone 22
T1 sequence (P30530 26-894): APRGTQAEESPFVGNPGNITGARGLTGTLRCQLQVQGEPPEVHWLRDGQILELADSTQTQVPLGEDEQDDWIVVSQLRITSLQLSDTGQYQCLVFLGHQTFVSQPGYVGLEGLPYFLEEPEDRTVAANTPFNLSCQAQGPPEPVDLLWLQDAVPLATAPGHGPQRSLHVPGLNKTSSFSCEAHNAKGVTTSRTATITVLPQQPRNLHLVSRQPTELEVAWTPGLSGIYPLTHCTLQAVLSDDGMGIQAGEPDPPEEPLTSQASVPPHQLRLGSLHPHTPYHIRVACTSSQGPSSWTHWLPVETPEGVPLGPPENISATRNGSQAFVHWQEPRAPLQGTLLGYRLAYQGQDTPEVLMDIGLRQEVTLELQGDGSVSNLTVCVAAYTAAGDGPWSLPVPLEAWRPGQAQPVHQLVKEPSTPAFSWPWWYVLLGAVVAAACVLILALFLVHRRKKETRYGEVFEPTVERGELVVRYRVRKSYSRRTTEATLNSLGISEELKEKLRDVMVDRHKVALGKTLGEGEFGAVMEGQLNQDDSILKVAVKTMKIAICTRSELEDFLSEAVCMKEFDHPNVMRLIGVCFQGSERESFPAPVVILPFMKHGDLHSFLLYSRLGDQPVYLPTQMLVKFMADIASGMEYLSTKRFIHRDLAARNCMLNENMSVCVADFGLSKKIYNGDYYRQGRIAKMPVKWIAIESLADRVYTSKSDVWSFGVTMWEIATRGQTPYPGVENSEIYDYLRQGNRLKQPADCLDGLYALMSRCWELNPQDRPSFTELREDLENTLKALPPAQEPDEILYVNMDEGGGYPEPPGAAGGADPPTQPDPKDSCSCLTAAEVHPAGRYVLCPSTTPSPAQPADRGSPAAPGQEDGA
In short: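 Phospho-AXL was quantified by ELISA in lysates (4G10-biotin, streptavidin-AP, AttoPhos, 430/560 nm read at 90 min). The cells were monoclonal NIH3T3 lines stably transduced with human wtAXL, exposed to serial compound dilutions for 1 h before lysis.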

[2] = test system: C8161; assay: Apoptosis assay (Cellomics, nucleus condensation); conditions: Homo sapiens, Table III, read-out: Apoptosis induction in C8161
In short: (§1)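 Apoptosis scored by automated microscopy of Hoechst-stained live nuclei, 24 and 48 h after treatment with 0.39–12.5 μM compound or DMSO.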

[3] = test system: Hs578T; assay: Apoptosis assay (Cellomics, nucleus condensation); conditions: Homo sapiens, Hs-578T, Table III, read-out: Apoptosis induction in Hs578T
In short: as §1

[4] = test system: SF126; assay: Apoptosis assay (Cellomics, nucleus condensation); conditions: Homo sapiens, SF-126, Table III, read-out: Apoptosis induction in SF126
In short: as §1

[5] = test system: SF763; assay: Apoptosis assay (Cellomics, nucleus condensation); conditions: Table III, read-out: Apoptosis induction in SF763
In short: as §1

[6] = test system: U118; assay: Apoptosis assay (Cellomics, nucleus condensation); conditions: Table III, read-out: Apoptosis induction in U118
In short: as §1

[7] = test system: U138; assay: Apoptosis assay (Cellomics, nucleus condensation); conditions: Table III, read-out: Apoptosis induction in U138
In short: as §1

## COc1cc2c(Oc3ccc(NS(=O)(=O)c4ccc(F)c(Cl)c4)cc3F)ccnc2cc1OCCCN1CCCC(C)C1 (centres unmarked) [Example 57, 3-Chloro-4-fluoro-N-(3-fluoro-4-{6-methoxy-7-[3-(3-methyl-piperidin-1-yl)-propoxy]-quinolin-4-yloxy}-phenyl)-benzenesulfonamide]
[1]
  IC50: < 0.5 µM
[2]
  IC50: ≤ 12.5 µM
[3]
  IC50: ≤ 12.5 µM
[4]
  IC50: ≤ 12.5 µM
[5]
  IC50: 12.5 to 50 µM
[6]
  IC50: ≤ 12.5 µM
[7]
  IC50: ≤ 12.5 µM

## COc1cc2c(Oc3ccc(NS(=O)(=O)c4ccc(C)c(F)c4)cc3F)ccnc2cc1OCCCN1CCCC(C)C1 (centres unmarked) [Example 56, 3-Fluoro-N-(3-fluoro-4-{6-methoxy-7-[3-(3-methyl-piperidin-1-yl)-propoxy]-quinolin-4-yloxy}-phenyl)-4-methyl-benzenesulfonamide]
[1]
  IC50: < 0.5 µM
[2]
  IC50: ≤ 12.5 µM
[3]
  IC50: ≤ 12.5 µM
[4]
  IC50: ≤ 12.5 µM
[5]
  IC50: ≤ 12.5 µM
[6]
  IC50: ≤ 12.5 µM
[7]
  IC50: ≤ 12.5 µM
